{"source": "patent US8076366B2", "about": "“Forms of bendamustine free base” (Cephalon, Inc., priority 2009, dated 2011)", "experiment": "Variable temperature X-ray powder diffraction (VT-XRPD) of Form 3: solid-state thermal stability", "assay_type": "physicochemical", "protocol": "Variable temperature studies were performed with an Anton Paar TTK450 temperature chamber under computer control through an Anton Paar TCU100 temperature control unit. Typically, the measurements were done with a nitrogen flow through the camera. Two measurement schemes were used, restricted and continuous. In the restricted mode, measurements were made only after the TK450 chamber reached the requested temperature. In the continuous mode, the sample was heated at 10° C./minute and fast scans were measured as the temperature changed. After the pre-selected temperature was reached, the sample was cooled at 35° C./minute. To monitor for changes during the cooling, fast scans were again measured. At 25° C., a slow scan was measured. The temperatures chosen were based on DSC results. For the diffractometer set-up a 10 mm beam mask, 0.04 radian Soller slits and fixed (¼°) divergence and anti-scatter (⅛°) slits were inserted on the incident beam side. A fixed 0.10 mm receiving slit, 0.04 radian Soller slits and a 0.02 mm Nickel filter were inserted on the diffracted beam side. […] With the nitrogen gas supply turned off, the camera returned to ambient conditions. The humidity in the ambient state varies with the humidity in the laboratory, typically 30 to 40%, and with the temperature in the camera. As the temperature is raised, the relative humidity will drop. […]", "data": [{"smiles": "Cn1c(CCCC(=O)O)nc2cc(N(CCCl)CCCl)ccc21", "note": "[Form 3, 4-{5-[Bis(2-chloroethyl)amino]-1-methyl-2-benzimidazolyl}butyric acid]", "values": [{"measurement": "temperature after which the sample converts to amorphous material", "value": "> 133", "unit": "°C"}, {"measurement": "solid-solid transformations on heating", "setting": "temperature range of 25° C. to 50° C.", "value": "No significant, solid-solid transformations"}]}]}
